For assay [1], the system named is cultured mouse cerebral cortex neurons. The experiment in a line: Inhibition of stimulated 3H-GABA release from cultured cerebral cortex neurons. It is filed as cell-based. The settings on record: Cerebral cortex neuron, 37° C., pH 7.4, stimulated 30 sec every 4 min. From the text:
The compounds of the invention have also been tested for their ability to inhibit GABA release from cultured mouse cerebral cortex neurons using the following test:
Background: Neurons which express receptors for excitatory amino acids can be depolarized by such compounds and this depolarization will ultimately lead to a release of transmitter substance from the neurons. Cultured neurons obtained from 15-day-old mouse embryo cortex are mainly GABAergic and express all types of excitatory amino acid receptors. This means that they can be stimulated by high potassium or by the excitatory amino acids, NMDA, AMPA and kainate to release their neurotransmitter GABA.
^3 H-GABA may be used to label the GABA transmitter pool in the neurons and the release of ^3 H-GABA from the neurons may be used as a simple functional model for studies of the effects of excitatory amino acids and their antagonists.
Method: Cerebral cortices of 16-day-old mouse embryos are chopped in 0.4×0.4 mm cubes. The tissue is dissociated by mild trypsinization (0.1% (wt/vol) trypsin, 37° C., 15 min) and subsequently inoculated into poly-L-lysine-coated 3-cm Petri dishes containing a slightly modified DMEM (24.5 mM KCI, 30 mM glucose) supplemented with p-aminobenzoate (7 μM), insulin (100 mU/L) and 10% (vol/vol) horse serum. Cells are maintained in culture for 5-7 days with the addition of the antimitotic agent cytosine arbinoside (40 μM) from day 2 in vitro to prevent glial profileration. For further details and references, see Drejer et al. Exp. Brain Res. 47, 259 (1982).
Release experiments are performed using the model described by Drejer et al. Life Sci. 38, 2077 (1986). Cerebral cortex neurons cultured in Petri dishes (30 mm) are added 100 μM γ-vinyl-GABA one hour before the experiment in order to inhibit degradation of GABA in the neurons. 30 min before the experiment 5 μCi ^3 H-GABA is added to each culture and after this preloading period the cell monolayer at the bottom of the dish is covered with a piece of nylon mesh to protect the cells against mechanical damage and to facilitate dispersion of medium over the cell layer. The preloading medium is removed and the Petri dishes are placed in a superfusion system consisting of a peristaltic pump continously delivering thermostated 37° C. superfusion medium HEPES buffered saline (HBS): 10 mM HEPES, 135 mM NaCl, 5 mM KCl, 0.6 mM MgSO4, 1.0 mM CaCl2 and 6 mM D-glucose; pH 7.4) from a reservoir to the top of the slightly tilted Petri dish. The medium is continously collected from the lower part of the dish and delivered to a fraction collector. Initially, the cells are superfused with HBS for 15 min (flow rate 2 ml/min). Then the cells are stimulated for 30 sec every 4 min by changing the superfusion medium from HBS to a corresponding medium containing […].
Test subtances are dissolved in 50% DMSO, 48% ethanol. The final DMSO and ethanol concentration in the assay must not exceed 0.1%.
The stimulated release of ^3 H-GABA (cpm) are corrected for the mean basal release(cpm) before and after stimulation.
The stimulated release in the presence of antagonists are expressed relative to the stimulated release and the IC50 value for the antagonist is calculated (the concentration (μM) of the test substance which inhibit 50% of the stimulated ^3 H-GABA release).

Another assay deals with AMPA receptor. Put plainly: AMPA receptor affinity (receptor binding, as described by T. Honore et al.). The settings on record: Neuroscience Letters 54, 27-32 (1985). The text has this: In Vitro activity (receptor affinity):
The compounds of the present invention has been tested for their affinity for the AMPA receptor as described by T. Honore et al., Neuroscience Letters 54, 27-32 (1985). IC50 values appear from the following Table 1.

The subject of another assay is Gerbils. The experiment in a line: Transient Forebrain Ischemia Model (2-VO Gerbils), global ischaemia, hippocampal damage. The format is in vivo, gerbil. The settings on record: 30 mg/kg bolus i.v. followed by one hour infusion of 30 mg/kg (total 60 mg/kg) after 4 min occlusion; read four days later; Mann-Whitney Rank Sum Test. How it is done: The compound, 8-methyl-5-(4-(N,N-dimethylsulphamoyl)phenyl)-6,7,8,9-tetrahydro-1H-pyrrolo[3,2-h]isoquinoline-2,3-dione-3-O-(N-ethylcarbamoyl)oxime has also been tested in the following animal moder of global ischaemia:
Transient Forebrain Ischemia Model (2-VO Gerbils)
Gerbils were anaesthetized with halothane, right and left carotid arteries located and occluded for 4 minutes. Animals were kept warm before and after the operation using heating lamps. During the operation the gerbils were placed on heating plates, body temperature controlled and maintained at 37±0.5° C. Postocclusion, the gerbils were divided in two groups. One group received 30 mg/kg test compound as a bolus injection i.v. followed by a one hour infusion of 30 mg/kg test compound (total dose was 60 mg/kg). The control group received 0.9% NaCl in the same infusion volume as the treated group. Four days later, the animals were sacrificed, brains removed and cooled to -70° C. Thereafter, the brains were sectioned in […] thick sections of which 5-7 with hippocampal tissue were selected and stained with hematoxylin eosine (HE).
Based upon the degree of hippocampal damage, each hippocampus was categorised into one of four groups (Group 1: no damage in the CA1-layer; Group 2: the CA1-layer partly damaged; Group 3: the CA1-layer completely damaged; and Group 4: damage in more than just the CA1-layer). […]

Where only a bound is given, the exact number is not on record here.

What is called IC50 is the concentration needed to halve the response being measured. Low readings indicate greater potency, high ones weaker potency. Consider `CN1CCc2c(-c3ccccc3)cc3c(c2C1)NC(=O)C3=NOC(=O)C(C)(C)C` [8-methyl-5-phenyl-6,7,8,9-tetrahydro-1H-pyrrolo[3,2-h]isoquinoline-2,3-dione-3-O-pivaloyloxime], for which the IC50 is over 3 µM in assay [1] and 0.19 µM at AMPA receptor.

Consider `CCNC(=O)ON=C1C(=O)Nc2c1cc(-c1ccccc1)c1c2CN(C)CC1` [8-methyl-5-phenyl-6,7,8,9-tetrahydro-1H-pyrrolo[3,2-h]isoquinoline-2,3-dione-3-O-(N-ethylcarbamoyl)oxime], for which the IC50 in assay [1] came to 1.4 µM; on AMPA receptor, 0.35 µM.

For `CCN1Cc2c(-c3ccccc3)cc3c(c2C1)NC(=O)C3=NOC(C)=O` [7-ethyl-5-phenyl-1,6,7,8-tetrahydrobenzo[2,1-b:3,4-c]dipyrrole-2,3-dione 3-O-acetyloxime], the results for the IC50 (in assay [1]; at AMPA receptor) were 2.7 µM and 1.7 µM, respectively.

As to `CCNC(=O)ON=C1C(=O)Nc2c1cc(-c1ccc(S(=O)(=O)N(C)C)cc1)c1c2CN(C)CC1` [8-methyl-5-(4-(N,N-dimethylsulphamoyl)phenyl)-6,7,8,9-tetrahydro-1H-pyrrolo[3,2-h]isoquinoline-2,3-dione-3-O-(N-ethylcarbamoyl)oxime], the IC50 in assay [1] amounted to 0.19 µM; at AMPA receptor, 0.038 µM. In addition, the “neuroprotective effect in the gerbil 2-VO model (ischemic score, hippocampal damage)” value with Gerbils was “significant neuroprotective effect”.

Turning to `CC(=O)ON=C1C(=O)Nc2c1cc(-c1ccccc1)c1c2CN(C)CC1` [8-methyl-5-phenyl-6,7,8,9-tetrahydro-1H-pyrrolo[3,2-h]isoquinoline-2,3-dione-3-O-acetyloxime], the IC50 came out at 2.9 µM in assay [1] and 0.15 µM at AMPA receptor.

For the compound `CN1CCc2c(-c3ccc(S(=O)(=O)N(C)C)cc3)cc3c(c2C1)NC(=O)C3=NOC(=O)NC1CCCCC1` [8-methyl-5-(4-(N,N-dimethylsulphamoyl)phenyl)-6,7,8,9-tetrahydro-1H-pyrrolo[3,2-h]isoquinoline-2,3-dione-3-O-(N-cyclohexylcarbamoyl)oxime], the IC50 on AMPA receptor is 0.014 µM. This lies in the double-digit nanomolar range.
